Twelve compounds from ChEMBL document CHEMBL1914281, “Discovery of novel pyridyl carboxamides as potent CCR5 antagonists and optimization of their pharmacokinetic profile in rats” (Bioorg Med Chem Lett, 2011) can be followed below.

Series [1] has as its system Human immunodeficiency virus 1. Description: Antiviral activity against Human immunodeficiency virus 1 Ba-L by in human HOS cells assessed as inhibition of viarl entry by luciferase reporter gene assay. The series is classed as functional, organism-based. (In general: Reporter assays use an easily measured gene product as a stand-in for the process of interest.)
In series [2] the test system is Human immunodeficiency virus 1. Description: Antiviral activity against Human immunodeficiency virus 1 Ba-L in human PBL cells assessed as inhibition of viral replication. It counts as functional, organism-based.
The nature of series [3]: Metabolic stability of the compound in Sprague-Dawley rat plasma assessed as compound remaining at 1 mg/kg after 5 mins. As to conditions: read-out: Stability. Further details: dose 1 mg/kg. It counts as ADME, organism-based.
Series [4] in a line: Metabolic stability of the compound in Sprague-Dawley rat plasma assessed as compound remaining at 1 mg/kg after 10 mins. It counts as ADME, organism-based. Set-up: dose 1 mg/kg. As to conditions: read-out: Stability.
The nature of series [5]: Metabolic stability of the compound in Sprague-Dawley rat plasma assessed as compound remaining at 1 mg/kg after 20 mins. The series is classed as ADME, organism-based. Set-up: dose 1 mg/kg. As to conditions: read-out: Stability.
Series [6] is described as follows: Metabolic stability of the compound in Sprague-Dawley rat plasma assessed as compound remaining at 1 mg/kg after 30 mins. The series is classed as ADME, organism-based. Further details: dose 1 mg/kg. As to conditions: read-out: Stability.
The test system of series [7] is Plasma. Description: (§1) Metabolic stability of the compound in Sprague-Dawley rat plasma assessed as compound remaining at 1 mg/kg after 45 mins. The series is classed as ADME, organism-based. Further details: dose 1 mg/kg. As to conditions: in vivo, 0.75 h.
Series [8] has as its system Plasma. The experiment in a line: (§2) Metabolic stability of the compound in Sprague-Dawley rat plasma assessed as compound remaining at 1 mg/kg after 60 mins. The series is classed as ADME, organism-based. Set-up: dose 1 mg/kg. As to conditions: in vivo, 1 h.
Series [9] can be described thus: Half life in Sprague-Dawley rat plasma at 1 mg/kg. Further details: dose 1 mg/kg. The series is classed as ADME, organism-based.
Series [10] is described as follows: Clearance in Sprague-Dawley rat plasma at 1 mg/kg. It counts as ADME, organism-based. Set-up: dose 1 mg/kg.
The nature of series [11]: Oral bioavailability in Sprague-Dawley rat plasma at 1 mg/kg. It counts as ADME, organism-based.
The nature of series [12]: as §1. It counts as ADME, organism-based. Set-up: dose 1 mg/kg. As to conditions: Sprague-Dawley, plasma, read-out: Stability.
Series [13] can be described thus: as §2. As to conditions: Sprague-Dawley, plasma, read-out: Stability. Set-up: dose 1 mg/kg. It counts as ADME, organism-based.
The subject of series [14] is Plasma. Description: Stability of the compound in Sprague-Dawley rat plasma. The series is classed as ADME, cell-free.
A further series relates to HOS. The experiment in a line: Cytotoxicity in human HOS cells assessed as cell death up to 1 uM. The series is classed as cell-based.
The test system of another series is PBL. The experiment in a line: Cytotoxicity in human PBL cells assessed as cell death up to 1 uM. It counts as cell-based.

In general, IC50 refers to the concentration that inhibits the measured activity by half. One may read the half-life as the time needed for the level to fall by half in the phase considered. Read a high half-life as slow loss. Broadly, the clearance is a measure of how efficiently the substance is removed, as volume per time. A high value points to a high capacity for elimination. For orientation: bioavailability means dose-corrected exposure relative to a reference, in per cent. The low end stands for little systemic uptake, the high end for much systemic uptake. Consider `Cc1cc(NC(=O)N(c2cccc(F)c2)C2CCN(Cc3ccc(Oc4ccc(NS(C)(=O)=O)cc4)nc3C)CC2)cnc1C(N)=O`, for which the IC50 in [1] stood at 1.9 nM; in [2], 5.3 nM. Also, the remaining at 5 min in series [3] came to 90%. For the same compound, in series [4], the remaining at 10 min is 88%. Besides, the remaining at 20 min in series [5] is 94%. Moreover, the remaining at 0.5 h in series [6] came to 120%. In addition, the Stability in the series with Plasma [7] stood at 123%; with Plasma [8], 134%. For the same compound, the half-life in [9] is 2 h. For the same compound, the clearance in series [10] is 37 mL/min/kg. In series [11], this compound gave a bioavailability of 30%.
Take `Cc1nc(Oc2ccc(NS(C)(=O)=O)cc2)ccc1CN1CCC(N(C(=O)Nc2ccc(C(N)=O)nc2C)c2cccc(F)c2)CC1`: the IC50 in series [1] stood at 3.6 nM; in [2], 3.9 nM. Further, the remaining at 5 min in [3] is 94%. Also, the remaining at 10 min in [4] turned out to be 91%. Further, the remaining at 20 min in series [5] was found to be 95%. Further, the remaining at 0.5 h in series [6] was 84%. Moreover, in series [12], the remaining at 0.75 h is 74%. For the same compound, the remaining at 1 h in series [13] came out at 71%. The half-life in series [9] was 2.8 h. In series [10], this compound gave a clearance of 11.7 mL/min/kg. This compound showed a bioavailability in series [11] of 49%.
For `CS(=O)(=O)Nc1ccc(Oc2ccc(CN3CCC(N(C(=O)Nc4ccc(C(N)=O)nc4)c4ccccc4)CC3)cn2)cc1`, the IC50 in series [1] was found to be 10 nM.
Still for that read-out and setting: the result for `CS(=O)(=O)Nc1ccc(Oc2ccc(CN3CCC(N(C(=O)Nc4ccc(C#N)nc4)c4ccccc4)CC3)cn2)cc1` reads 44 nM.
On to `Cc1nc(Oc2ccc(NS(C)(=O)=O)cc2)ccc1CN1CCC(N(C(=O)Nc2cnc(C(N)=O)c(F)c2)c2cccc(F)c2)CC1`, for which the IC50 in [1] was 1.2 nM; in series [2], 1.1 nM. For the same compound, in series [3], the remaining at 5 min amounted to 86%. Besides, the remaining at 10 min in series [4] turned out to be 71%. In series [5], the remaining at 20 min worked out at 42%. In [6], the remaining at 0.5 h came out at 26%. In addition, the remaining at 0.75 h in series [12] was 12%. Moreover, the remaining at 1 h in series [13] was 4%. For the same compound, the Stability entry in the series on Plasma [14] is “Unstable”.
For the compound `Cc1nc(Oc2ccc(NS(C)(=O)=O)cc2F)ccc1CN1CCC(N(C(=O)Nc2ccc(C(N)=O)nc2)c2cccc(F)c2)CC1`, the Activity result in the series on HOS and with PBL was “Non-toxic” in each case. Also, the values for the IC50 in series [1] and in series [2] were 1.2 nM and 0.5 nM, respectively.
Consider `Cc1nc(Oc2ccc(NS(C)(=O)=O)cc2Cl)ccc1CN1CCC(N(C(=O)Nc2ccc(C(N)=O)nc2)c2cccc(F)c2)CC1`, for which the Activity entry in the series on HOS and in the series with PBL was “Non-toxic” throughout. For the same compound, the values for the IC50 in [1] and in series [2] were 1.2 nM and 1.1 nM, respectively.
Consider `Cc1nc(Oc2ccc(NS(C)(=O)=O)cc2)ccc1CN1CCC(N(C(=O)Nc2ccc(C(N)=O)nc2)c2cccc(F)c2)CC1`, for which the Activity entry in the series on HOS and with PBL was “Non-toxic” throughout. For the same compound, the IC50 in [1] is 1 nM; in series [2], 0.8 nM. Moreover, the remaining at 5 min in series [3] stood at 85%. For the same compound, the remaining at 10 min in series [4] came to 67%. For the same compound, in series [5], the remaining at 20 min is 44%. Further, the remaining at 0.5 h in series [6] stood at 25%. In addition, in series [12], the remaining at 0.75 h came to 11%. The remaining at 1 h in [13] was 3%.
Take `Cc1cc(NS(C)(=O)=O)ccc1Oc1ccc(CN2CCC(N(C(=O)Nc3ccc(C(N)=O)nc3)c3cccc(F)c3)CC2)c(C)n1`: the Activity entry with HOS and in the series with PBL was “Non-toxic” throughout. For the same compound, the results for the IC50 in series [1] and in series [2] were 1 nM and 0.6 nM, respectively.
`Cc1nc(Oc2ccc(NS(C)(=O)=O)cc2)ccc1CN1CCC(N(C(=O)Nc2cc(F)c(C(N)=O)cc2F)c2cccc(F)c2)CC1` showed a half-life in series [9] of 3.9 h. In series [10], this compound had a clearance of 15 mL/min/kg. Besides, in series [11], the bioavailability is 53%.
Consider `CS(=O)(=O)Nc1ccc(Oc2ccc(CN3CCC(N(C(=O)Nc4ccc(C(N)=O)nc4)c4ccccc4)CC3)c(C3CC3)n2)cc1`, for which the Activity result in the series on HOS and in the series on PBL was “Non-toxic” in each case. The values for the IC50 in series [1] and in series [2] were 1 nM and 2.2 nM, respectively.
Consider `Cc1nc(Oc2ccc(NS(C)(=O)=O)cc2)ncc1CN1CCC(N(C(=O)Nc2ccc(C(N)=O)nc2)c2cccc(F)c2)CC1`, for which the Activity entry in the series with HOS and in the series with PBL was “Non-toxic” each time. The IC50 was 2.4 nM in series [1] and 0.9 nM in series [2].
